The values below come from ChEMBL document CHEMBL3507680, “University of Dundee, Gates Library screen for HepG2 cell viability”.

A short description of the data set: Human HepG2 cell viability assay in 384 well format. The format is toxicity, cell-based. Further details: dose 125 nL, time 70.5 hour; concentration not given beside the values. The settings on record: HepG2 cells, read-out: Inhibition.
As to `Cn1ccnc1CC1CCCN(C(=O)Nc2cccn(C)c2=O)C1` (configuration not stated), the cytotoxicity at 70.5 h was -2.41%. Under `O=C(NCCOc1ncc(Cl)cc1Cl)c1ccncc1` stands 1.47%.

For the compound `Cc1ccc(CCNC(=O)N2CCCC(Cc3nccn3C)C2)cn1` (configuration not stated), the cytotoxicity at 70.5 h turned out to be 1.34%.

As to `Cc1cccc(N2CCOCC3(C2)CN(c2cncnc2)C(=O)CO3)n1` (configuration not stated), the cytotoxicity at 70.5 h was -6.08%. Under `CCOC1CCC2(CCN(C(=O)c3c[nH]cn3)CC2)c2ccccc21` (configuration not stated) stands -6.3%; under `CCc1ccc(NC(=O)N2C[C@H]3C[C@H](C(=O)NC(C)C)[C@@H](C2)O3)cc1`, -7.8%; under `O=C(c1ccc[nH]1)N1CCCn2c(nnc2Cn2cccn2)C1`, -9.08%. The result for `Cc1ncnc2c1CCN(C(=O)N(C)C)CC2` reads -0.115%. Under `CS(=O)(=O)N1CCO[C@@H]2CN(C(=O)C3CCOC3)CC[C@@H]2C1` (some centres not stated) stands -6.14%. Consider `CS(=O)(=O)N1CCO[C@@H]2CN(C(=O)N3CCOCC3)CC[C@@H]2C1`, for which the cytotoxicity at 70.5 h is -6.09%.

Regarding `Cc1nc(CN2C(=O)CCC23CCN(Cc2ccco2)CC3)cs1`, the cytotoxicity at 70.5 h is -1.31%. `CN1CCC2(CC1)CN(C(=O)c1ccncc1)Cc1ccccc12`: the cytotoxicity at 70.5 h was -2.21%. With `CC(=O)N1CC[C@H]2OCC[C@@H](C(=O)NCc3ccco3)[C@@H]2C1`, the cytotoxicity at 70.5 h was 26.4%. Under `CC(C)NC(=O)N1CC[C@@H]2CN(Cc3ccccc3)S(=O)(=O)[C@@H]2CC1` stands 18.6%. The result for `CC(C)NC(=O)N1CCC2(COCc3cnc(-c4cccnc4)nc32)C1` (configuration not stated) reads -2.99%; that for `CO[C@@H]1CC[C@H]2[C@H]1OCCN2C(=O)COc1ccc(F)cc1`, -16.9%; that for `COCC(=O)NCc1cc(=O)n2c(n1)CN(Cc1ccsc1)CCC2`, -12.5%. Consider `CN(C)C(=O)N1C[C@@H]2COC[C@]2(CNS(C)(=O)=O)C1`, for which the cytotoxicity at 70.5 h was -14.4%. The result for `CNC(=O)N1CC[C@@H]2CN(Cc3cccnc3)S(=O)(=O)[C@@H]2CC1` reads -17.6%; that for `c1coc(CN2C[C@H](OCC3CCOCC3)[C@H]3COC[C@H]32)c1`, -15.3%. The result for `O=C(Nc1cccnc1)[C@H]1C[C@@H]2CN(C(=O)NC3CCCC3)C[C@H]1O2` reads -1.2%. The result for `CC(C)NC(=O)N1CCc2nc(C(=O)NCc3ccccc3)sc2CC1` reads -15.4%; that for `CS(=O)(=O)N[C@@H]1CCO[C@]2(CCN(C(=O)C3=CCCC3)C2)C1`, -10%. `Cn1cc(C2COC3(CCN(C(=O)Cn4cccn4)CC3)C2)cn1` (configuration not stated): the cytotoxicity at 70.5 h was -2.75%. Under `CS(=O)(=O)NCc1nnc2n1CCN(Cc1cccs1)C2` stands -3.11%; under `CCS(=O)(=O)N1CC[C@H](OC)[C@@H]1Cc1ccncc1`, 3.22%. The result for `Cn1ccnc1CN1CC[C@@H](NS(C)(=O)=O)[C@@H]1Cc1cccnc1` reads -2.76%; that for `Cc1noc([C@H]2C[C@@H]3CCN(C(=O)C4CCOCC4)C[C@H]3O2)n1`, -1.73%. The result for `Cc1ccc(N2CCC3(CC2)CC(OCC(=O)N(C)C)CO3)nn1` (configuration not stated) reads -8.76%. Turning to `Cc1nc(CN2C(=O)CC[C@H]3[C@@H]2CCN3C(=O)c2ccsc2)cs1`, the cytotoxicity at 70.5 h was -11.6%. Regarding `Cn1cc2c(n1)C(COCC1CC1)CN(Cc1ccccn1)C2` (configuration not stated), the cytotoxicity at 70.5 h was 15.6%. The result for `Cn1ncc2c1C(COCC1CC1)CN(Cc1ccoc1)C2` (configuration not stated) reads -6.88%; that for `Cc1cnc(N2CCn3cc(CNC(=O)CC4CC4)nc3C2)nc1`, 25.9%; that for `CN(C)C(=O)NC1COC2(CCN(C(=O)Nc3ccccc3)CC2)C1` (configuration not stated), 7.49%.

Turning to `Cc1cc(C(=O)N(C)Cc2ccccc2OCC(C)C)cc(=O)[nH]1`, the cytotoxicity at 70.5 h is 15.6%. Under `CC(Cn1cccn1)n1cnc2ccc(F)cc2c1=O` (configuration not stated) stands -7.83%; under `COc1cccc(-c2cc(CN)ccc2F)c1F`, -8.44%.

As for `CSCCC(=O)N1CCC(CCC(=O)NCC2CCCO2)CC1` (configuration not stated), the cytotoxicity at 70.5 h was -13.2%. Under `CC(C)CN1CCCn2nc(CNC(=O)CN3CCOC3=O)cc2C1` stands -7.41%; under `COCCN(Cc1cnn(C)c1)C(=O)C1CCN(C2CCCCC2)CC1`, -10.8%. The result for `CCN(Cc1cc(F)c(OC)c(Cl)c1)Cc1nc(COC)no1` reads 12.1%; that for `CN(Cc1ccoc1)C(=O)CN1C(=O)OC(C)(C)C1=O`, -8.72%; that for `CCS(=O)(=O)NCc1cccnc1N1CCCC(O)C1` (configuration not stated), -26.9%. The result for `CN1CC2(CCCN(Cc3ccc(Oc4ccccc4)cc3)C2)OC1=O` (configuration not stated) reads 16.8%; that for `O=c1[nH]c2ccccc2cc1CN(Cc1ccccn1)CC1CCCO1` (configuration not stated), -4.2%; that for `CN1C(=O)CC(C(=O)O)C12CCN(c1ccc3cccc(Cl)c3n1)CC2` (configuration not stated), -4.5%. With `Cn1nc(CO)c2c1CCN(c1ncnc3c1CCNC3)C2`, the cytotoxicity at 70.5 h is -6.14%. The result for `Cc1ccc2c(c1)C(NC1CC1)CC21CCNCC1` (configuration not stated) reads 11%; that for `COc1ccc2c(c1)C1(CCNCC1)CC2NC1CC1` (configuration not stated), 27.2%. The result for `Cc1ccc2c(c1)C1(CCNCC1)CC2NC1CC1` (configuration not stated) reads 2.66%; that for `c1cnc(NCc2cncc3c2CCN(Cc2cccs2)C3)nc1`, -10.8%; that for `CN1CC[C@]2(CN(CC3CCOC3)C[C@H]2c2ccccc2)C1=O` (some centres not stated), 16.2%. Under `COc1ncccc1CN1C[C@H]2CCN(c3ccc(C)nn3)C[C@H]2C1` stands 20%; under `c1coc(CN2CCO[C@H]3[C@@H](OCC4CC4)CC[C@@H]32)c1`, -7.18%. For `CN1CC[C@]2(CN(CC3CCOCC3)C[C@H]2c2ccccc2)C1=O`, the cytotoxicity at 70.5 h is -7.31%. The result for `CC(C)N(C)Cc1cc(=O)n2c(n1)CN(S(=O)(=O)C1CC1)CCC2` reads -7.06%. Under `CCOCC1c2c(cnn2C)CCN1C(=O)c1cc(C)on1` (configuration not stated) stands 6.2%; under `CCC(=O)Nc1ccc2c(c1)C1(CCOCC1)CN2CCF`, 16.7%; under `CC(=O)N1Cc2ccnn2CC(C(=O)NCc2cccnc2)C1` (configuration not stated), -6.11%. Consider `COCC(=O)Nc1ccc2c(c1)C1(CCOCC1)CN2CCF`, for which the cytotoxicity at 70.5 h came to 16.5%. Under `COCC1CN(Cc2ccc(F)cc2)Cc2nn(C)cc21` (configuration not stated) stands -3%. Turning to `CCO[C@H]1CO[C@@]2(CCCN(S(=O)(=O)c3cccnc3)C2)C1`, the cytotoxicity at 70.5 h was -11.8%.

Turning to `CCN(CC)Cc1cn2c(n1)CN(C(=O)c1cc(C)on1)CC2`, the cytotoxicity at 70.5 h was -13.3%. The result for `COCC(=O)N1CC[C@@H]2O[C@H](COCc3ccncc3)CC[C@@H]21` reads -15.9%; that for `O=C([C@H]1C[C@H]2OCC[C@H]2N(CCc2ccccc2)C1)N1CCCCO1`, -6.32%; that for `CCc1ccc(CN2CCC3(CC2)CC(N2CCN(C)CC2)CO3)cc1` (configuration not stated), 7.28%. On to `Cn1cc(C[C@H]2[C@H](O)CCN2CC2CC2)cn1`, for which the cytotoxicity at 70.5 h stood at 6.74%. The result for `CC(C)Nc1ncnc2c1CCN(C(=O)c1ccncc1F)CC2` reads 5.41%; that for `CN(C)C(=O)N1CCC2(CCCN(Cc3cnn(C)c3)C2)C1` (configuration not stated), 6.69%. Under `O=C(c1ccc[nH]1)N1CCc2c(COCC3CC3)cncc2C1` stands -4.79%; under `Cc1nc(CN2C[C@@H]3CN(C(=O)C4CC4)C[C@@H]3C2=O)cs1`, 27.3%; under `Cc1nc(CN2C[C@@H]3CN(C(=O)c4cccn4C)C[C@@H]3C2=O)cs1`, -3.56%. The result for `O=C1CO[C@@H]2CN(CC3CCOCC3)C[C@H]2N1CC1CC1` reads -2.81%; that for `CN(C)C(=O)N1CCN(Cc2cnn(C)c2)CC2(CNC(=O)C2)C1` (configuration not stated), -7.42%. Consider `Cc1nc(CN2CCc3ncnc(-c4ccc(F)cc4)c3CC2)cs1`, for which the cytotoxicity at 70.5 h is -4.74%. With `Cc1nc(CN2C[C@@H]3CN(C(=O)c4ccnnc4)C[C@@H]3C2=O)cs1`, the cytotoxicity at 70.5 h is -3.08%. Under `O=C1CC(c2ccncc2)C2(CCN(C(=O)c3ccc[nH]3)CC2)N1` (configuration not stated) stands 23.7%; under `CN(C)CCNC(=O)c1cc(-c2cnc(N3CCCC3)nc2)cn1C`, 21.5%. The result for `Cc1cccc(C(=O)N2C[C@@H]3CCN(c4cccnc4)C[C@@H]3C2)c1` reads 31.2%; that for `Cc1cccc(N2CC[C@@H]3CN(C(=O)c4ccco4)CCO[C@@H]3C2)n1`, -13.8%. Under `Cn1cc(CN2CC[C@]3(C[C@H](Oc4ccccn4)CO3)C2)cn1` stands -6.32%; under `Cn1cc(CN2CCC[C@]3(C[C@H](Oc4ncccc4F)CO3)C2)cn1`, -5.41%. For the compound `COCCN1CC[C@@H]2CN(Cc3cccnc3OC)C[C@@H]2C1`, the cytotoxicity at 70.5 h stood at 13.9%.

`COCCN1CC[C@@H]2CN(Cc3nccn3C)C[C@@H]2C1`: the cytotoxicity at 70.5 h is 8.43%. The result for `O=C(Cc1ccccn1)N1CCN2C[C@H](Oc3cccc(F)c3)C[C@H]2C1` reads 33.7%; that for `CNC(=O)[C@H]1CO[C@H]2CCN(Cc3ccc4ccccc4n3)C[C@H]2C1`, -0.28%; that for `O=C(c1ccc(F)cc1)N1CCN2C[C@H](OCc3ccccn3)C[C@H]2C1`, -6.75%.

For the compound `Fc1ccc(CNCC2OCCc3cn(CC4CC4)nc32)cc1` (configuration not stated), the cytotoxicity at 70.5 h was found to be 5.14%. The result for `CCN1C[C@H]2[C@@H](C1)N(S(=O)(=O)c1cccnc1)CC[C@H]2OC` reads 45.6%. Take `FC1(F)CCN(Cc2cccnc2)CC12CCN(c1ccccn1)C2` (configuration not stated): the cytotoxicity at 70.5 h was -15.1%. Under `CNC(=O)C1Cn2ccnc2C2(CCN(Cc3cccnc3)CC2)O1` (configuration not stated) stands 2.48%; under `CN1CCN(Cc2cnc3n2CCN(Cc2cccs2)C3)CC1`, 3.18%.
